# Molecular target: T1, LRRK2 (Homo sapiens, UniProt Q5S007, G2019S)
# T1 construct: purchased Invitrogen PV4882 (lot 567054A)
# Assay: In Vitro LRRK2 Assay (LabChip 3000, fluorescently-labeled peptide substrate, ATP)
# Assay type: biochemical
# Conditions: Table 9; LRRK2 Ki (micromolar); read-out: LRRK2 Ki (KI)
# Summary of the method: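 Read-out was LabChip capillary electrophoresis, resolving phospho- from non-phospho-peptide by fluorescence intensity. The kinase reaction combined enzyme, ATP, test compound and labeled peptide (4 μM working dilution) for 2 h in darkness before stop solution. Values were reported as Ki, from a tight-binding model with Et, S and Km, or as IC50 or percent inhibition.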
# T1 sequence (Q5S007 whole entry G2019S): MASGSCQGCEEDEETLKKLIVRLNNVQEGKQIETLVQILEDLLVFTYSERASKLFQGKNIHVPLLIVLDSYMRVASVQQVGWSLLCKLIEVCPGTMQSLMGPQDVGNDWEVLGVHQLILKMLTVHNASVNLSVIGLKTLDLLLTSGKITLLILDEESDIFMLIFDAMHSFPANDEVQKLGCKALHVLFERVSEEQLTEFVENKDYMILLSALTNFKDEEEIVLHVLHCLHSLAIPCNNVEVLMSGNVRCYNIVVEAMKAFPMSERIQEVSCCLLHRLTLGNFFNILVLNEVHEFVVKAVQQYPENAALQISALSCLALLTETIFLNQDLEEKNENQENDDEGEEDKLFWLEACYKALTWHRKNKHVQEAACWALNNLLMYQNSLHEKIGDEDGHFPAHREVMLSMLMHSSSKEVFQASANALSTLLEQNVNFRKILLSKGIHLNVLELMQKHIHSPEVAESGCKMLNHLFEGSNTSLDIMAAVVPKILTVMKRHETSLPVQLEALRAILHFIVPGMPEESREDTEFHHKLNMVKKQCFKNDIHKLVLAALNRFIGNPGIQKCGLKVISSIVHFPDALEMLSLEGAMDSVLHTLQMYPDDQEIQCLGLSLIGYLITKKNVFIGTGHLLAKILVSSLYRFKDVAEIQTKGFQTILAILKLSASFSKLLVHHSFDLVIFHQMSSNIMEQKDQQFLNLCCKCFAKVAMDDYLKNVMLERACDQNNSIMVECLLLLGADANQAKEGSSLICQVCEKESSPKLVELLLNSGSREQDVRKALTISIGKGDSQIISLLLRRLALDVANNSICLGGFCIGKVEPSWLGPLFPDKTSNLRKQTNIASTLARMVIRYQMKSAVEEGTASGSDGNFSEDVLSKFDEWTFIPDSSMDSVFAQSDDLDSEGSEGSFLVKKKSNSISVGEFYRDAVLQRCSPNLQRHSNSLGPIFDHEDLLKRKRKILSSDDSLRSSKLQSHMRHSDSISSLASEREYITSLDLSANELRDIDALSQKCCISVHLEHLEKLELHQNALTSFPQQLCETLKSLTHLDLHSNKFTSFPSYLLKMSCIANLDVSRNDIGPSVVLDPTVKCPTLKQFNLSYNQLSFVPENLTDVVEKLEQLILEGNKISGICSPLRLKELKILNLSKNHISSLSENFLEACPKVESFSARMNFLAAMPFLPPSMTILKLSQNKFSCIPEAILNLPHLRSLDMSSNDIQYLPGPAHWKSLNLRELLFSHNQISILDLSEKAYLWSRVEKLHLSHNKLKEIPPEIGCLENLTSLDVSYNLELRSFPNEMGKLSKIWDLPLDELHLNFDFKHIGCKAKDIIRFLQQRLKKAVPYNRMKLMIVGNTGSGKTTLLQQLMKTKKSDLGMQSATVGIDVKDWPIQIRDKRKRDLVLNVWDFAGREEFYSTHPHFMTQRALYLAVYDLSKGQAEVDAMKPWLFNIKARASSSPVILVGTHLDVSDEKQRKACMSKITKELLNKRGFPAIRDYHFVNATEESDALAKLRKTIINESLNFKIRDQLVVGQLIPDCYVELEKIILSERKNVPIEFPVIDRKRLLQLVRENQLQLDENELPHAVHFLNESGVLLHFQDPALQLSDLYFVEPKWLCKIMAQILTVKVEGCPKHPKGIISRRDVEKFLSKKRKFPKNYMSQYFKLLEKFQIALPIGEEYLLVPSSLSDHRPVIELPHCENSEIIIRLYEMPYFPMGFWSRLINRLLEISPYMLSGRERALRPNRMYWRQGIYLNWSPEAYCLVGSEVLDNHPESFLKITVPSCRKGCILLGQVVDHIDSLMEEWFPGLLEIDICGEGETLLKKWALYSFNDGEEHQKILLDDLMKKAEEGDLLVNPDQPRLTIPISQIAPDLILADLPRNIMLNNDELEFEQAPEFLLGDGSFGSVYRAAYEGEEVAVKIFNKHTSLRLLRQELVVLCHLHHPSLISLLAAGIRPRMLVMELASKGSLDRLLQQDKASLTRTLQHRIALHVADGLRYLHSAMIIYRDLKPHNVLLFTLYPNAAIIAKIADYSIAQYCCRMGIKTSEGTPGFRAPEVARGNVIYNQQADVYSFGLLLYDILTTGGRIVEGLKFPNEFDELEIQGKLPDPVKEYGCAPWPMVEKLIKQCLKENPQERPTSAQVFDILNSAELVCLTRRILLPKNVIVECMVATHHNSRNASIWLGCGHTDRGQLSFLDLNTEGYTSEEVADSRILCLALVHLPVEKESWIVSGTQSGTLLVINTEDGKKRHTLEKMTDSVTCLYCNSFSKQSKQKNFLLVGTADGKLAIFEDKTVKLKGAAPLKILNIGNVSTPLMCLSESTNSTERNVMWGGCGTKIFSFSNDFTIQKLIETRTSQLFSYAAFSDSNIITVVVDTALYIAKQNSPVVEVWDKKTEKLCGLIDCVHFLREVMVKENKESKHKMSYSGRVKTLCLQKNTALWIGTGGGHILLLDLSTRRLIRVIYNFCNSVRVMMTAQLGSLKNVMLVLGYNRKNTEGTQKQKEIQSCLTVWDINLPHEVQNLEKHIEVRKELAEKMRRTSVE
row,Ki [nM],Structure (SMILES)
1,241,"CNc1nc(Nc2cnn(-c3cc(F)cc(F)c3)c2C)ncc1C#N [Example 390, 2-[1-(3,5-Difluoro-phenyl)-5-methyl-1H-pyrazol-4-ylamino]-4-methylamino-pyrimidine-5-carbonitrile]"
2,24,"CCNc1nc(Nc2cn(C3CCOCC3)nc2C)ncc1C#N [Example 372, 4-(ethylamino)-2-(3-methyl-1-(tetrahydro-2H-pyran-4-yl)-1H-pyrazol-4-ylamino) pyrimidine-5-carbonitrile]"
3,32,"CNc1nc(Nc2cnn(CC(F)(F)F)c2C)ncc1C#N [Example 358, 2-(5-methyl-1-(2,2,2-trifluoroethyl)-1H-pyrazol-4-ylamino)-4-(methylamino) pyrimidine-5-carbonitrile]"
4,41.5,"CNc1nc(Nc2cn(-c3ccccn3)nc2C)ncc1C#N [Example 370, 2-(3-methyl-1-(pyridin-2-yl)-1H-pyrazol-4-ylamino)-4-(methylamino) pyrimidine-5-carbonitrile]"

# Same assay, conditions: Table 10; LRRK2 Ki (micromolar); read-out: LRRK2 Ki (KI)
row,Ki [nM],Structure (SMILES)
1,1.9,"CNc1nc(Nc2cnn(C(C)(C)C#N)c2Cl)ncc1C(F)(F)F [Example 418, 2-(5-chloro-4-(4-(methylamino)-5-(trifluoromethyl)pyrimidin-2-ylamino)-1H-pyrazol-1-yl)-2-methylpropanenitrile]"
2,15,"CNc1nc(Nc2cnn(CC(=O)N(C)C)c2C)ncc1C(F)(F)F [Example 395, N,N-dimethyl-2-(5-methyl-4-(4-(methylamino)-5-(trifluoromethyl)pyrimidim-2-ylamino)-1H-pyrazol-1-yl)acetamide]"
3,30,"CNc1nc(Nc2cnn([C@@H](C)C(=O)N(C)C)c2C)ncc1C(F)(F)F [Example 414, (S)-N,N-dimethyl-2-(5-methyl-4-(4-(methylamino)-5-(trifluoromethyl)pyrimidin-2-ylamino)-1H-pyrazol-1-yl)propanamide]"
4,1.9,"CNc1nc(Nc2cn([C@@H](C)C#N)nc2C)ncc1C(F)(F)F [Example 416, (S)-2-(3-methyl-4-(4-(methylamino)-5-(trifluoromethyl)pyrimidin-2-ylamino)-1H-pyrazol-1-yl)propanenitrile]"
5,9.5,"CNC(=O)Cn1cc(Nc2ncc(C(F)(F)F)c(NC)n2)c(C)n1 [Example 397, N-methyl-2-(3-methyl-4-(4-(methylamino)-5-(trifluoromethyl)pyrimidin-2-ylamino)-1H-pyrazol-1-yl)acetamide]"
6,6.3,CNc1nc(Nc2cn(C(C)(C)C(=O)NCC(F)(F)F)nc2C)ncc1C(F)(F)F [Example 424]

# Same assay, conditions: read-out: LRRK2 Ki (KI), Table 7
row,Ki [nM],Structure (SMILES)
1,15,"COc1nc(Nc2cnn(-c3ccc(S(C)(=O)=O)cc3)c2C)ncc1Cl [Example 60, 5-chloro-4-methoxy-N-(5-methyl-1-(4-(methylsulfonyl)phenyl)-1H-pyrazol-4-yl)pyrimidin-2-amine]"
2,2.2,"COc1nc(Nc2cn(-c3ccc(S(C)(=O)=O)cc3)nc2C)ncc1Cl [Example 75, (5-Chloro-4-methoxy-pyrimidin-2-yl)-[1-(4-methanesulfonyl-phenyl)-3-methyl-1H-pyrazol-4-yl]-amine]"
3,13.4,"CNc1nc(Nc2cc(C3CC3)nn2C)ncc1Cl [Example 45, 5-Chloro-N^2-(5-cyclopropyl-2-methyl-2H-pyrazol-3-yl)-N^4-methyl-pyrimidine-2,4-diamine]"
4,12,"CNc1nc(Nc2cc(C(C)C)nn2C)ncc1C(F)(F)F [Example 38, N^2-(3-isopropyl-1-methyl-1H-pyrazol-5-yl)-N^4-methyl-5-(trifluoromethyl) pyrimidine-2,4-diamine]"
5,70,"COc1nc(Nc2cc(C(C)C)nn2C)ncc1Cl [Example 41, 5-Chloro-N-(3-isopropyl-1-methyl-1H-pyrazol-5-yl)-4-methoxy-pyrimidin-2-amine]"
6,74.2,"CNc1nc(Nc2cnn(C)c2OC)ncc1C(F)(F)F [Example 84, N^2-(5-Methoxy-1-methyl-1H-pyrazol-4-yl)-N^4-methyl-5-trifluoromethyl-pyrimidine-2,4-diamine]"
7,2.2,"COc1nc(Nc2cn(-c3ccc(C(=O)N(C)C)cc3)nc2C)ncc1Cl [Example 81, 4-[4-(5-Chloro-4-methoxy-pyrimidin-2-ylamino)-3-methyl-pyrazol-1-yl]-N,N-dimethyl-benzamide]"

# Same assay, conditions: read-out: LRRK2 Ki (KI), Table 8
row,Structure (SMILES),Ki [nM]
1,"CNc1nc(Nc2cn([C@@H]3CCN(C4COC4)C3)nc2C)ncc1C(F)(F)F [Example 204, (R)-N4-methyl-N2-(3-methyl-1-(1-(oxetan-3-yl)pyrrolidin-3-yl)-1H-pyrazol-4-yl)-5-(trifluoromethyl) pyrimidine-2,4-diamine]",29
2,"CCNc1nc(Nc2cn(C3CCN(C)CC3)nc2C)ncc1C(F)(F)F [Example 208, N4-ethyl-N2-(3-methyl-1-(1-methylpiperidin-4-yl)-1H-pyrazol-4-yl)-5-(trifluoromethyl) pyrimidine-2,4-diamine]",10.2
3,"CNc1nc(Nc2cnn(-c3ccc(C#N)cc3)c2C)ncc1C(F)(F)F [Example 147, 4-(5-methyl-4-(4-(methylamino)-5-(trifluoromethyl)pyrimidin-2-ylamino)-1H-pyrazol-1-yl)benzonitrile]",17
4,"CNc1nc(Nc2cn(CC(F)(F)F)nc2C)ncc1C(F)(F)F [Example 254, N4-Methyl-N2-[3-methyl-1-(2,2,2-trifluoro-ethyl)-1H-pyrazol-4-yl]-5-trifluoromethyl-pyrimidine-2,4-diamine]",7.7
5,"CNc1nc(Nc2cnn(C3COC3)c2Cl)ncc1C(F)(F)F [Example 168, N2-(5-chloro-1-(oxetan-3-yl)-1H-pyrazol-4-yl)-N4-methyl-5-(trifluoromethyl) pyrimidine-2,4-diamine]",9.5
6,"CNc1nc(Nc2cn(C(F)F)nc2C)ncc1Br [Example 256, 5-Bromo-N2-(1-difluoromethyl-3-methyl-1H-pyrazol-4-yl)-N4-methyl-pyrimidine-2,4-diamine]",2.2
7,"CCC(C)S(=O)(=O)n1ncc(Nc2ncc(C(F)(F)F)c(NC)n2)c1C (stereo not shown) [Example 219, N2-(1-(sec-butylsulfonyl)-5-methyl-1H-pyrazol-4-yl)-N4-methyl-5-(trifluoromethyl) pyrimidine-2,4-diamine]",6.7
8,"CNc1nc(Nc2cn(-c3ccc(S(=O)(=O)C4CC4)cc3)nc2C)ncc1C(F)(F)F [Example 161, N2-(1-(4-(cyclopropyl-sulfonyl)phenyl)-3-methyl-1H-pyrazol-4-yl)-N4-methyl-5-(trifluoromethyl) pyrimidine-2,4-diamine]",0.3
9,"CNc1nc(Nc2cnn(S(=O)(=O)C(C)C)c2C)ncc1C(F)(F)F [Example 218, N2-(1-(isopropylsulfonyl)-5-methyl-1H-pyrazol-4-yl)-N4-methyl-5-(trifluoromethyl) pyrimidine-2,4-diamine]",8.1
10,"CNc1nc(Nc2cn(C3CCN(CC(F)(F)F)CC3)nc2C)ncc1Br [Example 94, 5-bromo-N4-methyl-N2-(3-methyl-1-(1-(2,2,2-trifluoroethyl)piperidin-4-yl)-1H-pyrazol-4-yl)pyrimidine-2,4-diamine]",13
11,"CNc1nc(Nc2cnn(CC3(C)COC3)c2Cl)ncc1C(F)(F)F [Example 180, N2-(5-chloro-1-((3-methyloxetan-3-yl)methyl)-1H-pyrazol-4-yl)-N4-methyl-5-(trifluoromethyl) pyrimidine-2,4-diamine]",5.6
12,"CNc1nc(Nc2cnn(Cc3ccccn3)c2C)ncc1C(F)(F)F [Example 212, N4-methyl-N2-(5-methyl-1-(pyridin-2-ylmethyl)-1H-pyrazol-4-yl)-5-(trifluoromethyl) pyrimidine-2,4-diamine]",2.9
13,"CNc1nc(Nc2cn(C3CCN(CC(F)(F)F)CC3)nc2C)ncc1C(F)(F)F [Example 92, N4-methyl-N2-(3-methyl-1-(1-(2,2,2-trifluoroethyl)piperidin-4-yl)-1H-pyrazol-4-yl)-5-(trifluoromethyl) pyrimidine-2,4-diamine]",46
14,"CNc1nc(Nc2cn(C3CCN(CCF)CC3)nc2C)ncc1C(F)(F)F [Example 285, N2-{1-[1-(2-Fluoro-ethyl)-piperidin-4-yl]-3-methyl-1H-pyrazol-4-yl}-N4-methyl-5-trifluoromethyl-pyrimidine-2,4-diamine]",28.3
15,"CNc1nc(Nc2cnn(C)c2C2CC2)ncc1C(F)(F)F [Example 178, N2-(5-cyclopropyl-1-methyl-1H-pyrazol-4-yl)-N4-methyl-5-(trifluoromethyl) pyrimidine-2,4-diamine]",12

# Other lines, results leading:
row,Ki [nM],Structure (SMILES)
1,0.3,"CCNc1nc(Nc2cnn([C@H]3CCCN(C4COC4)C3)c2C)ncc1C(F)(F)F [Example 307, N4-Ethyl-N2-[5-methyl-1-((S)-1-oxetan-3-yl-piperidin-3-yl)-1H-pyrazol-4-yl]-5-trifluoromethyl-pyrimidine-2,4-diamine]"
2,6.1,"CNc1nc(Nc2cnn(C(C)(C)c3cnn(C)c3)c2C)ncc1C(F)(F)F [Example 341, N4-methyl-N2-(5-methyl-1-(2-(1-methyl-1H-pyrazol-4-yl)propan-2-yl)-1H-pyrazol-4-yl)-5-(trifluoromethyl) pyrimidine-2,4-diamine]"
3,0.6,"CNc1nc(Nc2cn(Cc3cccc(C)n3)nc2C)ncc1C(F)(F)F [Example 293, N4-Methyl-N2-[3-methyl-1-(6-methyl-pyridin-2-ylmethyl)-1H-pyrazol-4-yl]-5-trifluoromethyl-pyrimidine-2,4-diamine]"
4,1.3,"CCNc1nc(Nc2cn(C(C)(C)C(=O)NC)nc2C)ncc1C(F)(F)F [Example 303, 2-[4-(4-Ethylamino-5-trifluoromethyl-pyrimidin-2-ylamino)-3-methyl-pyrazol-1-yl]-N-methyl-isobutyramide]"

# Same assay, conditions: read-out: LRRK2 Ki given in the example
row,Structure (SMILES),Ki [nM]
1,"CNc1nc(Nc2cn(C(C)(C)C#N)nc2C)ncc1C(F)(F)F [Example 394, 2-methyl-2-(3-methyl-4-(4-(methylamino)-5-(trifluoromethyl)pyrimidin-2-ylamino)-1H-pyrazol-1-yl)propanenitrile]",0.5

# — patent US8815882B2, “Pyrazole aminopyrimidine derivatives as LRRK2 modulators” (Genentech, Inc., priority 2010, dated 2014)
